Test results: ChEMBL document CHEMBL1201862, “PubChem BioAssay data set” (2004)
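Briefly, cells in 96-well plates were exposed to five compound concentrations for 48 h, and endpoints were estimated by linear interpolation. Here, GI50 denotes the concentration required for 50% inhibition of growth.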 Calls of active or inactive are those of the source. Rule as the data show it: active = GI50 up to about 1.1 µM and inactive = higher.

Legend:
Assay in all cases: NCI tumour cell line growth inhibition, 48 h
OVCAR-4 = tested on: OVCAR-4
KM-20L2 = tested on: KM-20L2
HOP-92 = tested on: HOP-92
SK-OV-3 = tested on: SK-OV-3
SNB-19 = tested on: SNB-19
SN12C = tested on: SN12C
HL-60 = tested on: HL-60
U-251 = tested on: U-251
OVCAR-3 = tested on: OVCAR-3
NCI-H23 = tested on: NCI-H23
TK-10 = tested on: TK-10
ACHN = tested on: ACHN
LXFL 529 = tested on: LXFL 529
HT-29 = tested on: HT-29
NCI-H226 = tested on: NCI-H226
RXF 631 = tested on: RXF 631
COLO 205 = tested on: COLO 205
MOLT-4 = tested on: MOLT-4
M14 = tested on: M14
UACC-62 = tested on: UACC-62
EKVX = tested on: EKVX
HCT-116 = tested on: HCT-116
OVCAR-5 = tested on: OVCAR-5
DMS-114 = tested on: DMS-114
HCT-15 = tested on: HCT-15
SF-539 = tested on: SF-539
UO-31 = tested on: UO-31
OVCAR-8 = tested on: OVCAR-8
CAKI-1 = tested on: CAKI-1
Malme-3M = tested on: Malme-3M
IGROV-1 = tested on: IGROV-1
M19-MEL = tested on: M19-MEL
CCRF-CEM = tested on: CCRF-CEM
NCI-H460 = tested on: NCI-H460
786-0 = tested on: 786-0
XF498 = tested on: XF498
SF-268 = tested on: SF-268
RPMI-8226 = tested on: RPMI-8226
A549 = tested on: A549
HOP-62 = tested on: HOP-62
SR = tested on: SR
HOP-18 = tested on: HOP-18
RXF 393 = tested on: RXF 393
A498 = tested on: A498
DLD-1 = tested on: DLD-1
NCI-H522 = tested on: NCI-H522
SNB-75 = tested on: SNB-75
HCC 2998 = tested on: HCC 2998
SK-MEL-5 = tested on: SK-MEL-5
SNB-78 = tested on: SNB-78
SF-295 = tested on: SF-295
SK-MEL-28 = tested on: SK-MEL-28
LOX IMVI = tested on: LOX IMVI
KM12 = tested on: KM12
UACC-257 = tested on: UACC-257
SW-620 = tested on: SW-620
K562 = tested on: K562
DMS-273 = tested on: DMS-273
SK-MEL-2 = tested on: SK-MEL-2

In the case of `Cc1cccc(C(C)(C)C)c1NC(=O)C(=O)C(C(=O)/C=C\c1ccccc1)C1OC(=O)c2ccccc21` (stereo unspecified), the GI50 (OVCAR-4) is reported as > 100 µM (inactive), the GI50 (KM-20L2) is reported as > 100 µM (inactive) and the GI50 (HOP-92) is reported as > 100 µM (inactive). For the same compound, the GI50 (SK-OV-3) was > 100 µM (inactive), the GI50 (SNB-19) was > 100 µM (inactive) and the GI50 (SN12C) was > 100 µM (inactive). For the same compound, the GI50 (HL-60) was > 100 µM (inactive), the GI50 (U-251) was > 100 µM (inactive) and the GI50 (OVCAR-3) was > 100 µM (inactive). The GI50 (NCI-H23) was > 100 µM (inactive), the GI50 (TK-10) was > 100 µM (inactive) and the GI50 (ACHN) was > 100 µM (inactive). For the same compound, the GI50 (LXFL 529) was > 100 µM (inactive), the GI50 (HT-29) was > 100 µM (inactive) and the GI50 (NCI-H226) was > 100 µM (inactive). For the same compound, the GI50 (RXF 631) was > 100 µM (inactive), the GI50 (COLO 205) was > 100 µM (inactive) and the GI50 (MOLT-4) was > 100 µM (inactive). For the same compound, the GI50 (M14) was > 100 µM (inactive), the GI50 (UACC-62) was > 100 µM (inactive) and the GI50 (EKVX) was > 100 µM (inactive). For the same compound, the GI50 (HCT-116) was > 100 µM (inactive), the GI50 (OVCAR-5) was > 100 µM (inactive) and the GI50 (DMS-114) was > 100 µM (inactive). For the same compound, the GI50 (HCT-15) was > 100 µM, the GI50 (SF-539) was > 100 µM (inactive) and the GI50 (UO-31) was > 100 µM (inactive). For the same compound, the GI50 (OVCAR-8) was > 100 µM (inactive), the GI50 (CAKI-1) was > 100 µM (inactive) and the GI50 (Malme-3M) was > 100 µM (inactive). The GI50 (IGROV-1) was > 100 µM (inactive), the GI50 (M19-MEL) was > 100 µM (inactive) and the GI50 (CCRF-CEM) was > 100 µM (inactive). For the same compound, the GI50 (NCI-H460) was > 100 µM (inactive), the GI50 (786-0) was > 100 µM (inactive) and the GI50 (XF498) was > 100 µM (inactive). For the same compound, the GI50 (SF-268) was > 100 µM (inactive), the GI50 (RPMI-8226) was > 100 µM (inactive) and the GI50 (A549) was > 100 µM (inactive). The GI50 (HOP-62) was > 100 µM (inactive), the GI50 (SR) was > 100 µM (inactive) and the GI50 (HOP-18) was > 100 µM (inactive). For the same compound, the GI50 (RXF 393) was > 100 µM (inactive), the GI50 (A498) was > 100 µM (inactive) and the GI50 (DLD-1) was > 100 µM (inactive). The GI50 (NCI-H522) was > 100 µM (inactive), the GI50 (SNB-75) was > 100 µM (inactive) and the GI50 (HCC 2998) was > 100 µM (inactive). For the same compound, the GI50 (SK-MEL-5) was > 100 µM (inactive), the GI50 (SNB-78) was > 100 µM (inactive) and the GI50 (SF-295) was > 100 µM (inactive). For the same compound, the GI50 (SK-MEL-28) was > 100 µM (inactive), the GI50 (LOX IMVI) was > 100 µM (inactive) and the GI50 (KM12) was > 100 µM (inactive). For the same compound, the GI50 (UACC-257) was > 100 µM (inactive), the GI50 (SW-620) was > 100 µM (inactive) and the GI50 (K562) was > 100 µM (inactive).
With `O=C1CC(CC(=O)C2CCCCC2=O)C(=O)N1` (stereo unspecified) the GI50 (OVCAR-4) was > 100 µM (inactive), the GI50 (KM-20L2) was > 100 µM (inactive) and the GI50 (HOP-92) was > 100 µM (inactive). For the same compound, the GI50 (SK-OV-3) was > 100 µM (inactive), the GI50 (SNB-19) was > 100 µM (inactive) and the GI50 (SN12C) was > 100 µM (inactive). The GI50 (HL-60) was > 100 µM (inactive), the GI50 (U-251) was > 100 µM (inactive) and the GI50 (OVCAR-3) was > 100 µM (inactive). The GI50 (NCI-H23) was > 100 µM (inactive), the GI50 (TK-10) was > 100 µM (inactive) and the GI50 (ACHN) was > 100 µM (inactive). The GI50 (LXFL 529) was > 100 µM (inactive), the GI50 (HT-29) was > 100 µM (inactive) and the GI50 (NCI-H226) was > 100 µM (inactive). For the same compound, the GI50 (COLO 205) was > 100 µM (inactive), the GI50 (M14) was > 100 µM (inactive) and the GI50 (UACC-62) was > 100 µM (inactive). The GI50 (EKVX) was > 100 µM (inactive), the GI50 (HCT-116) was > 100 µM (inactive) and the GI50 (OVCAR-5) was > 100 µM (inactive). For the same compound, the GI50 (DMS-114) was > 100 µM (inactive), the GI50 (DMS-273) was > 100 µM (inactive) and the GI50 (SF-539) was > 100 µM (inactive). For the same compound, the GI50 (UO-31) was > 100 µM (inactive), the GI50 (OVCAR-8) was > 100 µM (inactive) and the GI50 (CAKI-1) was > 100 µM (inactive). The GI50 (Malme-3M) was > 100 µM (inactive), the GI50 (IGROV-1) was > 100 µM (inactive) and the GI50 (M19-MEL) was > 100 µM (inactive). The GI50 (CCRF-CEM) was > 100 µM (inactive), the GI50 (NCI-H460) was > 100 µM (inactive) and the GI50 (786-0) was > 100 µM (inactive). For the same compound, the GI50 (XF498) was > 100 µM (inactive), the GI50 (SF-268) was > 100 µM (inactive) and the GI50 (RPMI-8226) was > 100 µM (inactive). The GI50 (A549) was > 100 µM (inactive), the GI50 (HOP-62) was > 100 µM (inactive) and the GI50 (SR) was > 100 µM (inactive). For the same compound, the GI50 (HOP-18) was > 100 µM (inactive), the GI50 (RXF 393) was > 100 µM (inactive) and the GI50 (A498) was > 100 µM (inactive). For the same compound, the GI50 (DLD-1) was > 100 µM (inactive), the GI50 (NCI-H522) was > 100 µM (inactive) and the GI50 (SNB-75) was > 100 µM (inactive). For the same compound, the GI50 (HCC 2998) was > 100 µM (inactive), the GI50 (SNB-78) was > 100 µM (inactive) and the GI50 (SF-295) was > 100 µM (inactive). The GI50 (SK-MEL-28) was > 100 µM (inactive), the GI50 (LOX IMVI) was > 100 µM (inactive) and the GI50 (KM12) was > 100 µM (inactive). For the same compound, the GI50 (UACC-257) was > 100 µM (inactive), the GI50 (SW-620) was > 100 µM (inactive) and the GI50 (K562) was > 100 µM (inactive).
`O=c1[nH]c(=O)n(C2CC(O)C(O)C(CO)O2)cc1F` (stereo unspecified) was tested, and the GI50 (OVCAR-4) was > 100 µM (inactive), the GI50 (KM-20L2) was > 100 µM (inactive) and the GI50 (HOP-92) was > 100 µM (inactive). The GI50 (SK-OV-3) was > 100 µM (inactive), the GI50 (SNB-19) was > 100 µM (inactive) and the GI50 (SN12C) was > 100 µM (inactive). The GI50 (HL-60) was > 100 µM (inactive), the GI50 (U-251) was > 100 µM (inactive) and the GI50 (OVCAR-3) was > 100 µM (inactive). The GI50 (NCI-H23) was > 100 µM (inactive), the GI50 (TK-10) was > 100 µM (inactive) and the GI50 (ACHN) was > 100 µM (inactive). For the same compound, the GI50 (LXFL 529) was > 100 µM (inactive), the GI50 (HT-29) was > 100 µM (inactive) and the GI50 (NCI-H226) was > 100 µM (inactive). The GI50 (RXF 631) was > 100 µM (inactive), the GI50 (COLO 205) was > 100 µM (inactive) and the GI50 (MOLT-4) was > 100 µM (inactive). For the same compound, the GI50 (M14) was > 100 µM (inactive), the GI50 (UACC-62) was > 100 µM (inactive) and the GI50 (EKVX) was > 100 µM (inactive). For the same compound, the GI50 (HCT-116) was > 100 µM (inactive), the GI50 (OVCAR-5) was > 100 µM (inactive) and the GI50 (DMS-114) was > 100 µM (inactive). For the same compound, the GI50 (HCT-15) was > 100 µM, the GI50 (SF-539) was > 100 µM (inactive) and the GI50 (UO-31) was > 100 µM (inactive). The GI50 (OVCAR-8) was > 100 µM (inactive), the GI50 (Malme-3M) was > 100 µM (inactive) and the GI50 (IGROV-1) was > 100 µM (inactive). For the same compound, the GI50 (M19-MEL) was > 100 µM (inactive), the GI50 (CCRF-CEM) was > 100 µM (inactive) and the GI50 (NCI-H460) was > 100 µM (inactive). For the same compound, the GI50 (786-0) was > 100 µM (inactive), the GI50 (XF498) was > 100 µM (inactive) and the GI50 (SF-268) was > 100 µM (inactive). The GI50 (RPMI-8226) was > 100 µM (inactive), the GI50 (A549) was > 100 µM (inactive) and the GI50 (HOP-62) was > 100 µM (inactive). For the same compound, the GI50 (HOP-18) was > 100 µM (inactive), the GI50 (RXF 393) was > 100 µM (inactive) and the GI50 (SK-MEL-2) was > 100 µM (inactive). For the same compound, the GI50 (A498) was > 100 µM (inactive), the GI50 (DLD-1) was > 100 µM (inactive) and the GI50 (NCI-H522) was > 100 µM (inactive). For the same compound, the GI50 (SNB-75) was > 100 µM (inactive), the GI50 (HCC 2998) was > 100 µM (inactive) and the GI50 (SNB-78) was > 100 µM (inactive). The GI50 (SF-295) was > 100 µM (inactive), the GI50 (SK-MEL-28) was > 100 µM (inactive) and the GI50 (LOX IMVI) was > 100 µM (inactive). The GI50 (KM12) was > 100 µM (inactive), the GI50 (UACC-257) was > 100 µM (inactive) and the GI50 (SW-620) was > 100 µM (inactive). The GI50 (K562) was > 100 µM (inactive).
